Experimental data: patent US20230047825A1, “ANTIMICROBIAL PEPTIDES” (priority 2019, published 2023)
Several values for one entry are separate records, joined by “and”; a condition that tells them apart may be missing. Equal values may be shown once. Read-outs that look alike come from different tables or passages of the source. Where a SMILES comes first, the peptide text is derived from it.

System: EMRSA-15 lung infection
Protocol: Murine EMRSA-15 lung infection model. In one embodiment this was carried out using the method described previously,^58 an overnight culture of EMRSA-15 was prepared in tryptic soy broth (TSB). EMRSA-15 was cultured in TSB overnight at 37° C., adjusted to a starting OD600 of 0.025, and grown for additional 4 h for agar beads preparation. EMRSA-15 was embedded into agar beads by mixing the overnight culture with molten tryptic soy agar, which was then spun into warmed mineral oil. The preparation was cooled and centrifuged at 2,700 g, the remaining oil was eliminated and the beads were washed in sterile PBS. The colony forming unit (cfu) content of the beads slurry was subsequently quantified on TSA plates and the beads slurry then diluted to either 2×10^7 cfu/ml in sterile PBS to deliver a final dose of either 1×10^6 cfu/mouse. Animal work was performed in accordance with the Animals (Scientific Procedures) Act of 1986 (United Kingdom). On day 0, male C57B16J mice (8-10 weeks, Charles River) were anesthetized under Isoflurane and 50 μl inoculum of EMRSA-15 embedded in agar beads (10^6 cfu/mouse) was instilled directly into the respiratory tract via oropharyngeal dosing (o.a) to reduce severity associated with surgery. Sham control mice were inoculated with sterile PBS agar beads. […] Body weight was measured daily, and animals monitored at regular intervals for signs of pain and distress. 48 hours post pulmonary infection, animals were terminally euthanized using 25% Urethane via intra-peritoneal injection. Lungs, were removed and homogenized in 2 ml PBS. Samples were serially diluted 1:10 in PBS and plated for CFU count. Lung homogenates were then centrifuged at 14000 rpm for 30 min at 4° C. and the supernatants were stored at −80° C. for future analysis. For bronchoalveolar lavage fluid collection and analysis (total and differential cell count), a 22-gauge catheter was inserted into the trachea and BAL was recovered by instillation of 0.5 ml of sterile PBS three times and total cells counts were performed by adding Turks stain in a 1:1 ratio. Total cells were then enumerated on an improved Naubauer haemocytometer. BAL fluid was then centrifuged, and supernatants were stored at −20° C. Cytospin slides were prepared and 100 μl of BAL was added into a cytospin funnel and centrifuged at 1000 rpm for 1 minute on a medium acceleration. The slides were then stained using Diff-Quick (Dade, Biomap, Italy).
More suitably Murine EMRSA-15 lung infection model was carried out using the method described previously,^58 an overnight culture of EMRSA-15 was prepared in tryptic soy broth (TSB). EMRSA-15 was cultured in TSB overnight at 37° C., adjusted to a starting OD600 of 0.025, and grown for additional 4 h for agar beads preparation. EMRSA-15 was embedded into agar beads by mixing the overnight culture with molten tryptic soy agar, which was then spun into warmed mineral oil. The preparation was cooled and centrifuged at 2,700 g, the remaining oil was eliminated, and the beads were washed in sterile PBS. The colony forming unit (CFU) content of the beads slurry was subsequently quantified on TSA plates and the beads slurry then diluted to either 2×10^7 CFU/ml in sterile PBS to deliver a final dose of either 1×10^6 CFU/mouse. Animal work was performed in accordance with the Animals (Scientific Procedures) Act of 1986 (United Kingdom). On day 0, male C57B16J mice (8-10 weeks, Charles River) were anesthetized under Isoflurane and 50 μl inoculum of EMRSA-15 embedded in agar beads (10^6 CFU/mouse) was instilled directly into the respiratory tract via oropharyngeal dosing (o.a.) to reduce severity associated with surgery. Sham control mice were inoculated with sterile PBS agar beads.

Compound: CC(C)C[C@@H](NC(=O)[C@@H](Cc1ccc(O)cc1)NC(=O)[C@@H](Cc1c[nH]cn1)NC(=O)[C@H](NC(=O)[C@@H](CC(C)C)NC(=O)[C@@H](C)NC(=O)[C@@H](C)NC(=O)[C@@H](CCCNC(=N)N)NC(=O)CNC(=O)[C@H](NC(=O)[C@@H](Cc1c[nH]cn1)NC(=O)[C@@H](CCCNC(=N)N)NC(=O)CNC(=O)[C@H](NC(=O)[C@@H](Cc1c[nH]cn1)NC(=O)[C@@H](C)NC(=O)[C@@H](C)NC(=O)[C@@H](CCCNC(=N)N)NC(=O)[C@@H](CCCNC(=N)N)NC(=O)[C@@H](Cc1ccccc1)NC(=O)[C@@H](Cc1ccccc1)NC(=O)[C@@H](CO)NC(=O)CNC(=O)[C@@H](Cc1c[nH]c2ccccc12)NC(=O)CN)C(C)C)C(C)C)[C@H](C)O)C(N)=O [D-pleurocidin-KR] (HELM PEPTIDE1{G.[dW].G.[dS].[dF].[dF].[dR].[dR].[dA].[dA].[dH].[dV].G.[dR].[dH].[dV].G.[dR].[dA].[dA].[dL].[dT].[dH].[dY].[dL].[am]}$$$$V2.0; N-terminus assumed)
- reduction in lung CFU (cumulative dose 1.5 mg/kg/48h i.v.): 0.9 log10
- reduction in lung CFU (cumulative dose 15 mg/kg/48h i.v. (three doses at 4, 24, 30 h post infection), 15 mg/kg): 1.14 log10 and 1.1 log10
- reduction in lung CFU (cumulative dose 15 mg/kg/48h i.v. (three doses at 4, 24, 30 h post infection), listed as AMP2b, 15 mg/kg): 1.14 log10
- weight loss over the 48-hour infection period (cumulative dose of 15 or 1.5 mg/kg/48h i.v.): mitigates this weight loss
- IL-6 and neutrophil recruitment in BAL (following therapy, i.v.): reduced
- macrophage numbers, TNFα and MCP-1 levels in BAL (following therapy, i.v.): No effects
- tolerability in murine lung infection model (i.v., cumulative dose of 15 or 1.5 mg/kg): well tolerated
- weight loss over the 48-hour infection period (lowest cumulative dose of 0.15 mg/kg i.v.): no observable effect
- IL-6 and neutrophil recruitment in BAL (lowest dose of D-pleurocidin-KR (0.15 mg/kg cumulative)): significant reduction
- effective cumulative dose over 48 hrs (murine EMRSA-15 lung infection): 1.5 mg/kg
- mouse KC levels in BAL (vancomycin 600 mg/kg or the two higher D-pleurocidin-KR doses (15, 1.5 mg/kg cumulative)): KC levels to fall to that of the uninfected group
